System: healthy Chinese participants
Test: Safety assessments (treatment-emergent adverse events)
Format: in vivo, human
Conditions: for safety and tolerability, in words: single dose of 10 mg or 20 mg and multiple doses of 5 mg, oral
Procedure: Safety was evaluated based on the occurrence, frequency, and severity of adverse events (AEs). Routine clinical laboratory tests, 12‐lead ECGs, physical examinations, and vital signs (blood pressure, pulse rate, and body temperature) were performed at initial screening, day 1, during the treatment period until discharge or early termination. The AEs were monitored from the initial administration to the last follow-up after the last treatment. The AEs were assessed by the investigators with regard to severity (mild, moderate, severe, and life‐threatening) and the relationship to study treatment (reasonably or possibly related and not reasonably or not possibly related).

## CCc1nc(-c2ccc3c(c2)CC[C@H]3NC(=O)c2cnn(C)c2)no1 [aficamten]
MD 5 mg (N = 9)
  TEAE Alanine aminotransferase increased, Number (%) of Subjects: 0 Number (%)
  TEAE Blood bilirubin increased, Number (%) of Subjects: 0 Number (%)
  TEAE Blood creatine phosphokinase increased, Events: 1
  TEAE Blood creatine phosphokinase increased, Number (%) of Subjects: 1(11.1) Number (%)
  TEAE Blood creatinine increased, Events: 1
  TEAE Blood creatinine increased, Number (%) of Subjects: 1(11.1) Number (%)
  TEAE Blood sodium decreased, Events: 1
  TEAE Blood sodium decreased, Number (%) of Subjects: 1(11.1) Number (%)
  TEAE Cardiac disorders (SOC), Number (%) of Subjects: 0 Number (%)
  TEAE Chest discomfort, Number (%) of Subjects: 0 Number (%)
  TEAE Conjugated bilirubin increased, Events: 2
  TEAE Conjugated bilirubin increased, Number (%) of Subjects: 2(22.2) Number (%)
  TEAE Gamma-glutamyltransferase increased, Number (%) of Subjects: 0 Number (%)
  TEAE Gastrointestinal disorders (SOC), Number (%) of Subjects: 0 Number (%)
  TEAE General disorders and administration site conditions (SOC), Number (%) of Subjects: 0 Number (%)
  TEAE Heart rate decreased, Number (%) of Subjects: 0 Number (%)
  TEAE Investigations (SOC), Events: 13
  TEAE Investigations (SOC), Number (%) of Subjects: 6(66.7) Number (%)
  TEAE Nausea, Number (%) of Subjects: 0 Number (%)
  TEAE Neutrophil count decreased, Events: 2
  TEAE Neutrophil count decreased, Number (%) of Subjects: 1(11.1) Number (%)
  TEAE Neutrophil count increased (first line, r9), Events: 1
  TEAE Neutrophil count increased (first line, r9), Number (%) of Subjects: 1(11.1) Number (%)
  TEAE Neutrophil count increased (second line, r18), Events: 1
  TEAE Neutrophil count increased (second line, r18), Number (%) of Subjects: 1(11.1) Number (%)
  TEAE Rash, Events: 1
  TEAE Rash, Number (%) of Subjects: 1(11.1) Number (%)
  TEAE Skin and subcutaneous tissue disorders (SOC), Events: 1
  TEAE Skin and subcutaneous tissue disorders (SOC), Number (%) of Subjects: 1(11.1) Number (%)
  TEAE Systolic blood pressure decreased, Events: 3
  TEAE Systolic blood pressure decreased, Number (%) of Subjects: 2(22.2) Number (%)
  TEAE Ventricular hypokinesia, Number (%) of Subjects: 0 Number (%)
  TEAE White blood cell count decreased, Number (%) of Subjects: 0 Number (%)
  TEAE White blood cell count increased, Events: 1
  TEAE White blood cell count increased, Number (%) of Subjects: 1(11.1) Number (%)
  TEAEs, Events: 14
  TEAEs, Number (%) of Subjects: 6(66.7) Number (%)
SAD 10 mg (N = 6)
  TEAE Alanine aminotransferase increased, Number (%) of Subjects: 0 Number (%)
  TEAE Blood bilirubin increased, Number (%) of Subjects: 0 Number (%)
  TEAE Blood creatine phosphokinase increased, Number (%) of Subjects: 0 Number (%)
  TEAE Blood creatinine increased, Number (%) of Subjects: 0 Number (%)
  TEAE Blood sodium decreased, Number (%) of Subjects: 0 Number (%)
  TEAE Cardiac disorders (SOC), Events: 1
  TEAE Cardiac disorders (SOC), Number (%) of Subjects: 1(16.7) Number (%)
  TEAE Chest discomfort, Number (%) of Subjects: 0 Number (%)
  TEAE Conjugated bilirubin increased, Number (%) of Subjects: 0 Number (%)
  TEAE Gamma-glutamyltransferase increased, Number (%) of Subjects: 0 Number (%)
  TEAE Gastrointestinal disorders (SOC), Number (%) of Subjects: 0 Number (%)
  TEAE General disorders and administration site conditions (SOC), Number (%) of Subjects: 0 Number (%)
  TEAE Heart rate decreased, Number (%) of Subjects: 0 Number (%)
  TEAE Investigations (SOC), Events: 2
  TEAE Investigations (SOC), Number (%) of Subjects: 1(16.7) Number (%)
  TEAE Nausea, Number (%) of Subjects: 0 Number (%)
  TEAE Neutrophil count decreased, Events: 1
  TEAE Neutrophil count decreased, Number (%) of Subjects: 1(16.7) Number (%)
  TEAE Neutrophil count increased (first line, r9), Number (%) of Subjects: 0 Number (%)
  TEAE Neutrophil count increased (second line, r18), Number (%) of Subjects: 0 Number (%)
  TEAE Rash, Number (%) of Subjects: 0 Number (%)
  TEAE Skin and subcutaneous tissue disorders (SOC), Number (%) of Subjects: 0 Number (%)
  TEAE Systolic blood pressure decreased, Number (%) of Subjects: 0 Number (%)
  TEAE Ventricular hypokinesia, Events: 1
  TEAE Ventricular hypokinesia, Number (%) of Subjects: 1(16.7) Number (%)
  TEAE White blood cell count decreased, Events: 1
  TEAE White blood cell count decreased, Number (%) of Subjects: 1(16.7) Number (%)
  TEAE White blood cell count increased, Number (%) of Subjects: 0 Number (%)
  TEAEs, Events: 3
  TEAEs, Number (%) of Subjects: 1(16.7) Number (%)
SAD 20 mg (N = 6)
  TEAE Alanine aminotransferase increased, Number (%) of Subjects: 0 Number (%)
  TEAE Blood bilirubin increased, Events: 1
  TEAE Blood bilirubin increased, Number (%) of Subjects: 1(16.7) Number (%)
  TEAE Blood creatine phosphokinase increased, Number (%) of Subjects: 0 Number (%)
  TEAE Blood creatinine increased, Number (%) of Subjects: 0 Number (%)
  TEAE Blood sodium decreased, Number (%) of Subjects: 0 Number (%)
  TEAE Cardiac disorders (SOC), Number (%) of Subjects: 0 Number (%)
  TEAE Chest discomfort, Events: 2
  TEAE Chest discomfort, Number (%) of Subjects: 1(16.7) Number (%)
  TEAE Conjugated bilirubin increased, Events: 2
  TEAE Conjugated bilirubin increased, Number (%) of Subjects: 2(33.3) Number (%)
  TEAE Gamma-glutamyltransferase increased, Number (%) of Subjects: 0 Number (%)
  TEAE Gastrointestinal disorders (SOC), Events: 1
  TEAE Gastrointestinal disorders (SOC), Number (%) of Subjects: 1(16.7) Number (%)
  TEAE General disorders and administration site conditions (SOC), Events: 2
  TEAE General disorders and administration site conditions (SOC), Number (%) of Subjects: 1(16.7) Number (%)
  TEAE Heart rate decreased, Events: 2
  TEAE Heart rate decreased, Number (%) of Subjects: 1(16.7) Number (%)
  TEAE Investigations (SOC), Events: 7
  TEAE Investigations (SOC), Number (%) of Subjects: 4(66.7) Number (%)
  TEAE Nausea, Events: 1
  TEAE Nausea, Number (%) of Subjects: 1(16.7) Number (%)
  TEAE Neutrophil count decreased, Number (%) of Subjects: 0 Number (%)
  TEAE Neutrophil count increased (first line, r9), Number (%) of Subjects: 0 Number (%)
  TEAE Neutrophil count increased (second line, r18), Number (%) of Subjects: 0 Number (%)
  TEAE Rash, Number (%) of Subjects: 0 Number (%)
  TEAE Skin and subcutaneous tissue disorders (SOC), Number (%) of Subjects: 0 Number (%)
  TEAE Systolic blood pressure decreased, Events: 2
  TEAE Systolic blood pressure decreased, Number (%) of Subjects: 2(33.3) Number (%)
  TEAE Ventricular hypokinesia, Number (%) of Subjects: 0 Number (%)
  TEAE White blood cell count decreased, Number (%) of Subjects: 0 Number (%)
  TEAE White blood cell count increased, Number (%) of Subjects: 0 Number (%)
  TEAEs, Events: 10
  TEAEs, Number (%) of Subjects: 4(66.7) Number (%)
All cohorts
  deaths, SAEs, AESIs, discontinuations due to TEAEs, LVEF <50%: no deaths, serious adverse events (SAEs)
  severity of TEAEs: mild
  safety and tolerability, in words: well-tolerated
Listed as Aficamten
  safety and tolerability, in words: safe and well-tolerated
